Measured values from patent US11046728B2, “Neuroactive steroids, compositions, and uses thereof” (Sage Therapeutics, Inc., priority 2013, dated 2021).

Assays:
[1] = biological target: TBPS binding, rat brain cortical membranes in the presence of 5 μM GABA; test: 35S-TBPS displacement (steroid inhibition of TBPS binding); settings: read-out: 35S-TBPS Radioligand Displacement (IC50)
Experimental: TBPS binding assays using rat brain cortical membranes in the presence of 5 μM GABA has been described (Gee et al, J. Pharmacol. Exp. Then 1987, 241, 346-353; Hawkinson et al, Mol. Pharmacol. 1994, 46, 977-985). Briefly, cortices are rapidly removed following decapitation of carbon dioxide-anesthetized Sprague-Dawley rats (200-250 g). The cortices are homogenized in 10 volumes of ice-cold 0.32 M sucrose using a glass/teflon homogenizer and centrifuged at 1500×g for 10 min at 4° C. The resultant supernatants are centrifuged at 10,000×g for 20 min at 4° C. to obtain the P2 pellets. The P2 pellets are resuspended in 200 mM NaCl/50 mM Na—K phosphate pH 7.4 buffer and centrifuged at 10,000×g for 10 min at 4° C. This washing procedure is repeated twice and the pellets are resuspended in 10 volumes of buffer. Aliquots (100 μL) of the membrane suspensions are incubated with 3 nM [^35S]-TBPS and 5 μL, aliquots of test drug dissolved in dimethyl sulfoxide (DMSO) (final 0.5%) in the presence of 5 μM GABA. The incubation is brought to a final volume of 1.0 mL with buffer. Nonspecific binding is determined in the presence of 2 μM unlabeled TBPS and ranged from 15 to 25%. Following a 90 min incubation at room temp, the assays are terminated by filtration through glass fiber filters (Schleicher and Schuell No. 32) using a cell harvester (Braudel) and rinsed three times with ice-cold buffer. Filter bound radioactivity is measured by liquid scintillation spectrometry. Non-linear curve fitting of the overall data for each drug averaged for each concentration is done using Prism (GraphPad). […] The concentration of test compound producing 50% inhibition (IC50) of specific binding and the maximal extent of inhibition (Imax) are determined for the individual experiments with the same model used for the overall data and then the means±SEMs of the individual experiments are calculated.
Various compounds are or can be screened to determine their potential as modulators of ^35S-TBPS binding in vitro. These assays are or can be performed in accordance with the above discussed procedures.

[2] = biological target: T1, GABA receptor α1β2γ2 (Homo sapiens, UniProt P14867+P47870); test: Patch clamp electrophysiology, Qpatch in Ltk cells; type: cell-based; settings: 10 μM test article, GABA EC20 = 2 μM, read-out: GABA (α1β2γ2) Qpatch in Ltk, % efficacy at 10 μM
T1 construct: expressed in transfected cells; host or cells: LTK cells, stably transfected

[3] = tested on: male Sprague Dawley rats; test: Loss of righting reflex in rats; type: in vivo, rat; settings: intravenous bolus 5 mg/kg
Experimental: The plasma pharmacokinetics and a qualitative assessment of sedation were obtained in male Sprague Dawley rats according to the following procedure. Rats were dosed by intravenous bolus dose (60 seconds) via the foot dorsal vein at 5 mg/kg in an appropriate vehicle. In order to assess sedation, rats were gently restrained by hand to a lateral position for dose administration. […] If the animal was unable to return to an upright position, the time was recorded as the onset of loss of righting reflex (LRR). […] Sluggish or incomplete righting twice consecutively within a 30 second interval qualifies as a loss of righting reflex. After onset of LRR, animals were assessed every 5 minutes in the same manner. Recovery of righting reflex is defined as the ability of a rat to right itself completely within 20 seconds of being placed in dorsal recumbency. The duration of LRR is defined as the time interval between LRR and the return of righting reflex.

[4] = biological target: T2, GABA receptor α4β3δ (Homo sapiens, UniProt P28472+P48169); test: Patch clamp electrophysiology, manual patch in CHO cells; type: cell-based; settings: 10 μM test article, GABA EC20 = 2 μM, read-out: GABA (α4β3δ) Manual patch in CHO, % efficacy at 10 μM
T2 construct: expressed in transfected cells; host or cells: CHO cells, transiently transfected
T2 sequence (P48169 36-554): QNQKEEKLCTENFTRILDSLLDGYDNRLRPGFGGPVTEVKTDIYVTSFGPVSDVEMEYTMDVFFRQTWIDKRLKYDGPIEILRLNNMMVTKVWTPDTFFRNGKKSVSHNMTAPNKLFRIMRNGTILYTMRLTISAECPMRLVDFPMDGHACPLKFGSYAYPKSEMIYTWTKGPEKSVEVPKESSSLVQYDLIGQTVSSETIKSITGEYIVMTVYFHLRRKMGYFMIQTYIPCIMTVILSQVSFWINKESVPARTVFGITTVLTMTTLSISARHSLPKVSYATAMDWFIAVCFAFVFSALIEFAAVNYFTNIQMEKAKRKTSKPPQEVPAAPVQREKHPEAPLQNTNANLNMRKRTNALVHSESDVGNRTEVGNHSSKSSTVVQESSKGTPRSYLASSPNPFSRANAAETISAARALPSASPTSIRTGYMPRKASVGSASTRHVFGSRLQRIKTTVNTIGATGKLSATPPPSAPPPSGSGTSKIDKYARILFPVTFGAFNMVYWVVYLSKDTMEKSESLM
T2 sequence (P28472 26-473): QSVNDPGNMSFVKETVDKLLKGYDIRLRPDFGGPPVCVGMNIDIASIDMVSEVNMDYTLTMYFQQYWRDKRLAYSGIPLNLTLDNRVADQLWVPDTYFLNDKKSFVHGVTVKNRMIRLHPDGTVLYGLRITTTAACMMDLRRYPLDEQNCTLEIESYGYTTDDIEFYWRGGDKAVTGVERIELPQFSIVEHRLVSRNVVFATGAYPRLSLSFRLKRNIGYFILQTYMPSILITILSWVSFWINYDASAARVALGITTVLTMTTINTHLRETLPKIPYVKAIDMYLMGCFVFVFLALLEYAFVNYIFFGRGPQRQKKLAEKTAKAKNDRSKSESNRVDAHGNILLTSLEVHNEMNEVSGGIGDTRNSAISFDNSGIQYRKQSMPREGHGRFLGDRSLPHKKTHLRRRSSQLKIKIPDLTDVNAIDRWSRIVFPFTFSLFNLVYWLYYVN
T2 sequence (O14764 25-452 partner): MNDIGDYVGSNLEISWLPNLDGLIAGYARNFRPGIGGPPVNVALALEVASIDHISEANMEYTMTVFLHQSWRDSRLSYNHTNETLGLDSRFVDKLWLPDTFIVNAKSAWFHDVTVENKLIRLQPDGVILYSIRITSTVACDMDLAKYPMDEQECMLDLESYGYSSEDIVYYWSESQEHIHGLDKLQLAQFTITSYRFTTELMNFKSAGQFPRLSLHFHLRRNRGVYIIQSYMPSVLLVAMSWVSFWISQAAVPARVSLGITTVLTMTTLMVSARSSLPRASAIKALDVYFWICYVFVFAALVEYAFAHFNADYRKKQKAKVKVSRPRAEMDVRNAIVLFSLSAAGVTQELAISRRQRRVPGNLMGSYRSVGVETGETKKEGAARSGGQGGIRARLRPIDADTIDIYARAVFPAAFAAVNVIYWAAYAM

T1 sequence (P14867 28-456): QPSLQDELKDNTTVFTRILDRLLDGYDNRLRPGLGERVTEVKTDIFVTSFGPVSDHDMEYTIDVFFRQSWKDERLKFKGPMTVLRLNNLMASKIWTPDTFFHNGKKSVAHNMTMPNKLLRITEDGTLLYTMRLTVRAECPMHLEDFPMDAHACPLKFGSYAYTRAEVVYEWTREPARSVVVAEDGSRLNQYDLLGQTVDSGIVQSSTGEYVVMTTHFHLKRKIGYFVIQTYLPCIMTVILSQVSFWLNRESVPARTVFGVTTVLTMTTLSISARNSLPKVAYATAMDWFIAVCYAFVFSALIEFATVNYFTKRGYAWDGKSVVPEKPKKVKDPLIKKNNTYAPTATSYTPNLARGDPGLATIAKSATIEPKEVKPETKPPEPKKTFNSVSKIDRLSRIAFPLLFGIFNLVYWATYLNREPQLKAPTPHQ
T1 sequence (P47870 25-512 limits assumed): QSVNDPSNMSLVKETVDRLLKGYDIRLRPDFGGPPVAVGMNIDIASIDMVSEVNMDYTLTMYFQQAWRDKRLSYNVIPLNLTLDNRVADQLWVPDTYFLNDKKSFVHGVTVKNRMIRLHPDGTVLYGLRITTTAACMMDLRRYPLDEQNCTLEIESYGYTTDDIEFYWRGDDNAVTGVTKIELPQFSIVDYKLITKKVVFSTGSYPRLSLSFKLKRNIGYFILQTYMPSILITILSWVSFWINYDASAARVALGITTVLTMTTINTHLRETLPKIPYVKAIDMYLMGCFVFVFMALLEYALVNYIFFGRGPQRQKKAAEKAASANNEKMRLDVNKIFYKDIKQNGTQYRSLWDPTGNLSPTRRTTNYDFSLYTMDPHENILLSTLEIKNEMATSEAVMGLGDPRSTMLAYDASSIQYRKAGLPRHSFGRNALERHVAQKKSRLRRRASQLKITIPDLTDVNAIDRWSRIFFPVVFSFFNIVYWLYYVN
T1 sequence (P18507 40-475 partner): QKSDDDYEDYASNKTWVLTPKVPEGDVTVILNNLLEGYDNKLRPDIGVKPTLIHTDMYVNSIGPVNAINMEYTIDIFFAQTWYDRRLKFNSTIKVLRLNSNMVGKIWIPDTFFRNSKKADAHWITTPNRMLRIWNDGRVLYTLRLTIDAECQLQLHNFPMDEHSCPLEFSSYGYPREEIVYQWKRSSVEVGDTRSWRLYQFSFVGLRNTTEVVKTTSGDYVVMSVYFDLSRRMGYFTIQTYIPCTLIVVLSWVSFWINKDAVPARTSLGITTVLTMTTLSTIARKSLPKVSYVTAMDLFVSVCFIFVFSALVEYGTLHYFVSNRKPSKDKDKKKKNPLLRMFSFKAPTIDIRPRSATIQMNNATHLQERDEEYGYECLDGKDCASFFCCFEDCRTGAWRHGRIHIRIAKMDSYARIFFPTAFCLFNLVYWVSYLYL

Structure (SMILES)	IC50 [1] [nM]	Emax at 10 µM [2] [%]	Duration of LRR (min) [3]	Emax at 10 µM [4] [%]
C[C@H]1[C@H](O)CC[C@]2(C)[C@@H]3[C@@H](CC[C@@H]12)[C@@H]1CC[C@H](C#N)[C@@]1(C)C[C@@H]3O [Compound 56]	> 500	–	–	–
CCCO[C@H]1C[C@@]2(C)[C@@H](CC[C@@H]3[C@@H]2CC[C@]2(C)[C@H](C#N)CC[C@@H]32)C[C@@H]1O [Compound 18]	> 500	–	–	–
CO[C@H]1C[C@]2(C)[C@@H](C#N)CC[C@H]2[C@@H]2CC[C@@H]3C[C@H](O)CC[C@]3(C)[C@H]21 [Compound 28]	100 to 500	> 500	A (“A” indicates the duration of LRR to be <10 min)	–
CC(C)O[C@H]1C[C@@]2(C)[C@@H](CC[C@H]3[C@@H]4CC[C@H](C#N)[C@@]4(C)CC(=O)[C@@H]32)C[C@@H]1O [Compound 22]	50 to 100	100 to 500	–	–
C[C@]12CC[C@@H](O)C[C@H]1CC[C@@H]1[C@@H]2[C@@H](O)C[C@]2(C)[C@@H](C#N)CC[C@@H]12 [Compound 9]	> 500	100 to 500	–	10 to 100
CCCO[C@H]1C[C@@]2(C)[C@@H](CC[C@@H]3[C@@H]2[C@@H](O)C[C@]2(C)[C@@H](C#N)CC[C@@H]32)C[C@@H]1O [Compound 26]	100 to 500	–	B (“B” indicates the duration of LRR to be 10-20 minutes)	–
C[C@H]1[C@H](O)CC[C@@]2(C)[C@H]1CC[C@H]1[C@@H]3CC[C@H](C#N)[C@@]3(C)CC(=O)[C@@H]12 [Compound 55]	> 500	–	–	–
CO[C@H]1C[C@]2(C)[C@H](C#N)CC[C@H]2[C@@H]2CC[C@H]3C[C@H](O)[C@@H](OC)C[C@]3(C)[C@H]21 [Compound 13]	> 500	–	–	–
CC[C@H]1[C@H](O)CC[C@]2(C)[C@H]3CC[C@]4(C)[C@@H](C#N)CC[C@H]4[C@@H]3CC[C@@H]12 [Compound 50]	> 500	–	–	–
CO[C@@H]1C[C@@]2(C)[C@@H](CC[C@@H]3[C@@H]2CC[C@]2(C)[C@@H](C#N)CC[C@@H]32)C[C@@H]1O [Compound 44]	> 500	–	–	–
CO[C@H]1C[C@]2(C)[C@@H](C#N)CC[C@H]2[C@@H]2CC[C@H]3C[C@H](O)[C@@H](OC)C[C@]3(C)[C@H]21 [Compound 12]	100 to 500	> 500	A (“A” indicates the duration of LRR to be <10 min)	–
CO[C@@H]1C[C@]2(C)[C@@H](C#N)CC[C@H]2[C@@H]2CC[C@H]3C[C@H](O)CC[C@]3(C)C21 (stereo partly shown) [Compound 34]	100 to 500	–	–	–
CCO[C@H]1C[C@@]2(C)[C@@H](CC[C@@H]3[C@@H]2[C@@H](O)C[C@]2(C)[C@@H](C#N)CC[C@@H]32)C[C@@H]1O [Compound 10]	> 500	> 500	A (“A” indicates the duration of LRR to be <10 min)	–
C[C@]12CC[C@@H](O)C[C@H]1CC[C@@H]1[C@@H]2[C@@H](O)C[C@]2(C)[C@H](C#N)CC[C@@H]12 [Compound 15]	> 500	–	–	–
CCO[C@H]1C[C@@]2(C)[C@@H](CC[C@@H]3[C@@H]2[C@@H](O)C[C@]2(C)[C@H](C#N)CC[C@@H]32)C[C@@H]1O [Compound 11]	> 500	–	–	–
CO[C@H]1C[C@]2(C)[C@@H](C#N)CC[C@H]2[C@@H]2CC[C@H]3C[C@H](O)[C@@H](C)C[C@]3(C)[C@H]21 [Compound 51]	10 to 50	> 500	C (“C” indicates the duration of LRR to be >20 minutes)	–
COCCO[C@H]1C[C@@]2(C)[C@@H](CC[C@H]3[C@@H]4CC[C@H](C#N)[C@@]4(C)CC(=O)[C@@H]32)C[C@@H]1O [Compound 17]	> 500	100 to 500	–	–
CO[C@H]1C[C@]2(C)[C@@H](C#N)CC[C@H]2[C@@H]2CC[C@H]3C[C@H](O)[C@H](C)C[C@]3(C)[C@H]21 [Compound 45]	50 to 100	> 500	C (“C” indicates the duration of LRR to be >20 minutes)	–
C[C@]12C[C@H](OC3CC3)[C@@H](O)C[C@@H]1CC[C@@H]1[C@@H]2CC[C@]2(C)[C@H](C#N)CC[C@@H]12 [Compound 57]	> 500	–	–	–

Structure (SMILES)	IC50 [1] [nM]	Emax at 10 µM [2] [%]	Duration of LRR (min) [3]	Emax at 10 µM [4] [%]
C[C@]12C[C@H](OC3CC3)[C@@H](O)C[C@@H]1CC[C@@H]1[C@@H]2CC[C@]2(C)[C@@H](C#N)CC[C@@H]12 [Compound 42]	> 500	–	–	–
C[C@]12C[C@@H](O)C3[C@@H](CC[C@H]4C[C@H](O)CC[C@]34C)[C@@H]1CC[C@@H]2C#N (stereo partly shown) [Compound 30]	> 500	–	–	–
CO[C@H]1C[C@]2(C)[C@H](C#N)CC[C@H]2[C@@H]2CC[C@H]3C[C@H](O)[C@H](C)C[C@]3(C)[C@H]21 [Compound 46]	100 to 500	10 to 100	–	–
C[C@]12C[C@H](OC(F)(F)F)[C@@H](O)C[C@@H]1CC[C@@H]1[C@@H]2CC[C@]2(C)[C@@H](C#N)CC[C@@H]12 [Compound 43]	> 500	–	–	–
C[C@@H]1C[C@@]2(C)[C@@H](CC[C@@H]3[C@@H]2CC[C@]2(C)[C@@H](C#N)CC[C@@H]32)C[C@@H]1O [Compound 33]	10 to 50	100 to 500	A (“A” indicates the duration of LRR to be <10 min)	–
CO[C@H]1C[C@]2(C)[C@@H](C#N)CC[C@H]2[C@@H]2CC[C@H]3[C@@H](C)[C@H](O)CC[C@]3(C)[C@H]21 [Compound 52]	> 500	–	–	–
CC[C@H]1C[C@@]2(C)[C@@H](CC[C@@H]3[C@@H]2CC[C@]2(C)[C@@H](C#N)CC[C@@H]32)C[C@@H]1O [Compound 41]	< 10	> 500	C (“C” indicates the duration of LRR to be >20 minutes)	–
C[C@H]1C[C@@]2(C)[C@@H](CC[C@@H]3[C@@H]2CC[C@]2(C)[C@@H](C#N)CC[C@@H]32)C[C@@H]1O [Compound 40]	10 to 50	> 500	B (“B” indicates the duration of LRR to be 10-20 minutes)	–
CCCO[C@H]1C[C@@]2(C)[C@@H](CC[C@H]3[C@@H]4CC[C@H](C#N)[C@@]4(C)CC(=O)[C@@H]32)C[C@@H]1O [Compound 21]	10 to 50	> 500	C (“C” indicates the duration of LRR to be >20 minutes)	–
C[C@]12CC[C@@H](O)C[C@@H]1CC[C@@H]1[C@@H]2[C@@H](O)C[C@]2(C)[C@@H](C#N)CC[C@@H]12 [Compound 27]	> 500	–	–	–
COCCO[C@H]1C[C@@]2(C)[C@@H](CC[C@@H]3[C@@H]2[C@@H](O)C[C@]2(C)[C@@H](C#N)CC[C@@H]32)C[C@@H]1O [Compound 24]	> 500	–	–	–
C[C@H]1C[C@@]2(C)[C@@H](CC[C@@H]3[C@@H]2[C@@H](O)C[C@]2(C)[C@@H](C#N)CC[C@@H]32)C[C@@H]1O [Compound 54]	100 to 500	–	–	–
CCO[C@H]1C[C@@]2(C)[C@@H](CC[C@H]3[C@@H]4CC[C@@H](C#N)[C@@]4(C)CC(=O)[C@@H]32)C[C@@H]1O [Compound 20]	> 500	–	–	–
C[C@H]1[C@H](O)CC[C@@]2(C)[C@H]1CC[C@@H]1[C@@H]2CC[C@]2(C)[C@@H](C#N)CC[C@@H]12 [Compound 49]	100 to 500	–	–	–
C[C@H]1C[C@@]2(C)[C@@H](CC[C@H]3[C@@H]4CC[C@H](C#N)[C@@]4(C)CC(=O)[C@@H]32)C[C@@H]1O [Compound 53]	100 to 500	–	–	–
CC(C)O[C@H]1C[C@@]2(C)[C@@H](CC[C@H]3[C@@H]4CC[C@H](C#N)[C@@]4(C)CC(=O)[C@@H]32)C[C@@H]1O [Compound 23]	100 to 500	–	B (“B” indicates the duration of LRR to be 10-20 minutes)	–
CC(C)CO[C@H]1C[C@]2(C)C3CC[C@]4(C)[C@@H](C#N)CC[C@H]4[C@@H]3CC[C@H]2C[C@@H]1O (stereo partly shown) [Compound 29]	< 10	> 500	C (“C” indicates the duration of LRR to be >20 minutes)	–
C[C@]12C[C@H](OCCO)[C@@H](O)C[C@@H]1CC[C@@H]1[C@@H]2CC[C@]2(C)[C@@H](C#N)CC[C@@H]12 [Compound 7]	> 500	–	–	–
